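Each compound was tested at five concentrations against cells in 96-well plates for 48 hours. The concentration for 50% growth inhibition is given as GI50. TGI: concentration producing complete growth inhibition.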
Experiments:
Test in all cases: NCI-60 cell line screen, 48 h
[1] = tested on: A549 NSCLC
[2] = tested on: HT29 colon
[3] = tested on: K-562 leukemia
[4] = tested on: NCI-H23 lung
[5] = tested on: OVCAR-4 ovarian
[6] = tested on: RXF 393 renal
[7] = tested on: U251 CNS
[8] = tested on: UACC-62 melanoma
[9] = tested on: DU-145 prostate
[10] = tested on: OVCAR-5 ovarian

Row | Compound | TGI [1] [µM] | TGI [2] [µM] | TGI [3] [µM] | TGI [4] [µM] | TGI [5] [µM] | TGI [6] [µM] | TGI [7] [µM] | TGI [8] [µM] | GI50 [1] [µM] | GI50 [9] [µM] | TGI [9] [µM] | GI50 [4] [µM] | GI50 [5] [µM] | GI50 [10] [µM] | TGI [10] [µM] | GI50 [6] [µM] | GI50 [7] [µM] | GI50 [8] [µM] | GI50 [3] [µM] | GI50 [2] [µM]
1 | N#CC12CCC1C1CCCCC12N1CCSCC1 (stereo unspecified) | > 100 | > 100 | > 100 | > 10 | > 10 | 86.5 | > 100 | > 100 | – | – | – | – | – | – | – | – | – | – | – | –
2 | NC(=NCc1ccccc1)C(N=Nc1ccccc1)C(=O)NCc1ccccc1 (stereo unspecified) | 10.1 | – | – | 21.9 | 45.1 | 27 | 25.9 | 37.6 | 3.05 | 2.28 | 6.01 | 5 | 18.5 | 18 | 44.7 | 12.9 | 5.75 | 16.5 | – | –
3 | O=C1C(=O)N(c2ccc(Cl)cc2)C(=O)C(=O)C1c1nc2ccccc2o1 | > 100 | > 100 | > 100 | > 100 | > 100 | > 100 | > 100 | > 100 | – | – | – | – | – | – | > 100 | – | – | – | – | –
4 | Cc1c(O)c(N=Nc2nc3ccccc3s2)c2ccccc2c1O | > 50 | – | 48.3 | > 50 | – | 39.7 | > 50 | > 50 | 19.8 | 23.4 | > 50 | 13.9 | – | > 50 | > 50 | 12.5 | 25.5 | 15.3 | 14.7 | –
5 | COC(=O)c1ccccc1N(C(=O)c1ccccc1)c1ccccc1C | > 100 | > 100 | > 100 | 79.3 | > 100 | 92.1 | > 100 | > 100 | – | – | – | – | – | – | > 100 | – | – | – | – | –
6 | CCCCCOCC(O)CO (stereo unspecified) | > 100 | – | – | > 100 | > 100 | > 100 | > 100 | > 100 | – | – | – | – | – | – | > 100 | – | – | – | – | –
7 | C=C(CO)CC(O)c1cc(OC)ccc1OC (stereo unspecified) | > 100 | > 100 | > 100 | – | > 100 | > 100 | > 100 | > 100 | – | – | – | – | – | – | > 100 | – | – | – | – | –
8 | COc1cc(C2CC(c3cccc(Nc4ccnc5cc(Cl)ccc45)c3)=NN2c2ccc(Cl)cc2)cc(OC)c1OC (stereo unspecified) | > 100 | – | > 100 | > 100 | – | 34.4 | – | 19.9 | 2.72 | 17.1 | > 100 | 17.5 | – | 13.2 | > 100 | 2.42 | – | 0.311 | 0.755 | –
9 | O=C(Nc1cccc2c1C(=O)c1c(NC(=O)c3ccccc3)ccc(Nc3cccc4c3C(=O)c3ccccc3C4=O)c1C2=O)c1ccccc1 | > 100 | – | > 100 | – | > 100 | > 100 | > 100 | > 100 | – | – | – | – | – | – | – | – | – | – | – | –
10 | O=C(O)C[C@@H](Cl)[C@H](NC(=O)OCc1ccccc1)C(=O)O | > 100 | > 100 | > 100 | > 100 | > 100 | > 100 | > 100 | > 100 | – | – | – | – | – | – | > 100 | – | – | – | – | –
11 | COc1cc(/C=C(\NC(=O)c2ccccc2)c2nc3ccc4c(c3[nH]2)C(=O)c2ccccc2C4=O)cc(OC)c1OC | > 100 | > 100 | > 100 | > 100 | > 100 | 86.8 | > 100 | > 100 | – | – | – | – | – | – | > 100 | – | – | – | – | –
12 | Cc1nc2c(c(N3CCCc4ccccc43)n1)CCC2 | > 100 | 0.0131 | > 100 | > 100 | > 100 | – | > 100 | > 100 | < 0.01 | < 0.01 | > 100 | < 0.01 | 0.0406 | 1.7 | > 100 | – | < 0.01 | < 0.01 | < 0.01 | < 0.01
13 | CCN1CCC(Nc2ccnc3cc(Cl)ccc23)CC1 | > 100 | – | > 100 | > 100 | > 100 | > 100 | > 100 | 39.2 | 33.9 | 36.5 | > 100 | 74.1 | 55.7 | 34.2 | > 100 | 32.9 | 30.5 | 19.2 | 4.83 | –
14 | COC(=O)C1=C(O)[C@H](C(=O)OC)C2(O)C(C(=O)OC)[C@H](c3ccc(OC(=O)C(C)c4ccccc4)cc3)C[C@@H]1[C@@H]2C(=O)OC (stereo partly specified) | > 50 | – | > 50 | 29.2 | > 50 | > 50 | > 50 | > 50 | 19.4 | 20.6 | > 50 | 12.5 | 21.5 | > 50 | > 50 | 13.7 | 27.4 | 16.9 | 19.4 | –
15 | O=C1C(Cl)=C(Nc2ccc(Nc3ccccc3)c(NC3=C(Cl)C(=O)c4ccccc4C3=O)c2)C(=O)c2ccccc21 | > 100 | > 100 | – | > 100 | – | 14.2 | 7.22 | 13.2 | 8.25 | 14.9 | 28.4 | 19.6 | – | 24 | 66.8 | 3.09 | 2.32 | 3.46 | – | 16.1
16 | COc1ccc(/C(=N\NC(=O)NN)C(c2ccc(OC)cc2)C2(O)C(=O)Nc3c(Cl)cc(Cl)cc32)cc1 (stereo unspecified) | > 100 | > 100 | – | > 100 | > 100 | > 100 | > 100 | > 100 | – | – | – | – | – | – | > 100 | – | – | – | – | –
17 | COc1cc2c(c(OC)c1OC)-c1ccc(O)cc1[C@@H](NC(C)=O)CC2 | > 100 | 0.141 | > 100 | > 100 | > 100 | – | > 100 | > 100 | 0.0666 | 0.0365 | 0.168 | 0.0544 | 0.0706 | 0.215 | > 100 | – | 0.0465 | 0.0582 | 0.0376 | 0.0339
18 | CO[C@@H]1C=C[C@@]23c4cc5c(cc4CN(C[C@@H]2O)[C@H]3C1)OCO5 | > 100 | > 100 | > 100 | > 100 | 18.8 | > 100 | 73.1 | 64.2 | – | – | – | – | – | – | > 100 | – | – | – | – | –
